Data: patent US11464802B2, “3-substituted piperidine compounds for Cbl-b inhibition, and use thereof” (Nurix Therapeutics, Inc., priority 2019, dated 2022)
pIC50: −log10 of the molar value. Like-named read-outs stand apart in the source and are kept apart here.

Tests used:
[1] = test system: primary human total T-cells; experiment: Primary human total T-cell activation: CD25 surface staining, Biological Example 2; type: cell-based; conditions: 48 hours, fold change over baseline; for fold induction at 0.3 µM: inhibitor 0.3 μM; for fold induction at 1 µM: inhibitor 1 μM; for fold induction at 3 µM: inhibitor 3 μM
[2] = test system: primary human total T-cells; experiment: Primary human total T-cell activation: IL-2 secretion, Biological Example 2; type: cell-based; conditions: 48 hours, fold change over baseline; for fold induction at 0.3 µM: inhibitor 0.3 μM; for fold induction at 1 µM: inhibitor 1 μM; for fold induction at 3 µM: inhibitor 3 μM
[3] = molecular target: Cbl-b (Homo sapiens (Human), UniProt Q13191); experiment: Cbl-b displacement assay (Cbl-b inhibition assay), TR-FRET probe displacement, Biological Example 1; type: binding
Procedure: Candidate compounds were evaluated for their ability to bind and inhibit Cbl-b, an E3 ubiquitin-protein ligase, as evidenced by their ability to displace a fluorophore-labeled probe (Example 46) bound to Cbl-b.
The ability of candidate compounds to displace a known inhibitor and thereby inhibit Cbl-b activity was measured by monitoring the interaction of Cbl-b with a fluorophore-labeled probe in the presence of the candidate compound. A truncated variant of Cbl-b (UniProt number Q13191; SEQ ID NO:1) containing an Avitag at its N-terminus was co-expressed with BirA biotin ligase and purified using a standard protocol (see Dou et al., Nature Structural and Molecular Biology 8: 982-987, 2013; Avidity LLC).
Fluorescently-labeled inhibitor probe was synthesized and tagged with BODIPY FL (Example 46). Cbl-b displacement assays were performed in a 384-well plate at room temperature in a 10 μL reaction volume by pre-incubating 0.5 nM Cbl-b or 0.125 nM Cbl-b (final concentration, indicated as “High” and “Low”, respectively) in an assay buffer containing 20 mM HEPES pH 7.5, 150 mM NaCl, 0.01% Triton X-100, 0.01% BSA, and 0.5 mM TCEP in the presence of a candidate compound in 1% DMSO (final concentration) for 1 hour. After incubation in the presence of the candidate compound, the plate was incubated for an additional 1 hour in the presence of an approximate EC40 binding saturation consisting of 150 nM fluorescently-labeled inhibitor probe and 2 nM Streptavidin-Terbium (Cisbio) (final concentrations). Following the 1 hour incubation, the plates were read for TR-FRET signal at 520/620 nM using an Envision plate reader (Perkin Elmer).

[4] = anti-CD3/anti-CD28 co-stimulation
[5] = anti-CD3/anti-CD28 co-stimulation, read-out: CD25 staining CD3/CD28 1 μM
[6] = anti-CD3 alone, read-out: CD25 staining CD3 1 μM
[7] = anti-CD3/anti-CD28 co-stimulation, read-out: IL-2 secretion CD3/CD28 1 μM
[8] = anti-CD3 alone, read-out: IL-2 secretion CD3 1 μM
[9] = 0.125 nM Cbl-b final concentration (Low), read-out: Cbl-b activity IC50 (Low)
[10] = 0.5 nM Cbl-b final concentration (High), read-out: Cbl-b activity IC50 (High)
[11] = Cbl-b concentration (High or Low) not given, read-out: IC50 values in the Cbl-b inhibition assay of Biological Example 1

Sequence of Cbl-b (Q13191 36-427): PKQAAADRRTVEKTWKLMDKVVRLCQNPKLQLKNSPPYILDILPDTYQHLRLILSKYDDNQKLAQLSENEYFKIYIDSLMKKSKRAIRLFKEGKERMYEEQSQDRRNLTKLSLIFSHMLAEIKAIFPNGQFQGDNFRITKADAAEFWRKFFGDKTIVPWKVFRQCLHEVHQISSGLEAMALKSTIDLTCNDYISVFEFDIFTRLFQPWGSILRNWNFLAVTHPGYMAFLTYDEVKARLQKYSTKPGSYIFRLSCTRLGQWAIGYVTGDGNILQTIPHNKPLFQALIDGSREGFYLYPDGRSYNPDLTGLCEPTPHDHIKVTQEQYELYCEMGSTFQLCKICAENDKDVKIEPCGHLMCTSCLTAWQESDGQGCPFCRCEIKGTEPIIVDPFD

SMILES | pIC50 [3, 9] | pIC50 [3, 10] | pIC50 [3, 11] | fold induction at 0.3 µM [1, 4] | fold induction at 1 µM [1, 5] | fold induction at 1 µM [1, 6] | fold induction at 3 µM ([1]; anti-CD3 alone) | fold induction at 0.3 µM [2, 4] | fold induction at 1 µM [2, 7] | fold induction at 1 µM [2, 8] | fold induction at 3 µM ([2]; anti-CD3 alone)
C[C@H](c1cc2c(c(C3CC3)n1)CN(c1cccc(C3(Cc4nncn4C)COC3)c1)C2=O)N1CCC(F)(F)[C@H](C)C1 [Compound 50, 4-cyclopropyl-6-((R)-1-((R)-4,4-difluoro-3-methylpiperidin-1-yl)ethyl)-2-(3-(3-((4-methyl-4H-1,2,4-triazol-3-yl)methyl)oxetan-3-yl)phenyl)-2,3-dihydro-1H-pyrrolo[3,4-c]pyridin-1-one] | > 9.00 |  |  | > 1.39 | > 1.39 | > 1.14 | > 1.14 | > 15 | > 15 | > 0.66 | > 0.66
C[C@H]1CCCN(Cc2cc3c(c(C4CC4)n2)CN(c2cccc(C4(Cc5nncn5C)COC4)c2)C3=O)C1 [Compound 35, (S)-4-Cyclopropyl-2-(3-(3-((4-methyl-4H-1,2,4-triazol-3-yl)methyl)oxetan-3-yl)phenyl)-6-((3-methylpiperidin-1-yl)methyl)-2,3-dihydro-1H-pyrrolo[3,4-c]pyridin-1-one] | 8.30 to 9.00 |  |  | < 1.24 | 1.25 to 1.39 | 1.05 to 1.14 | > 1.14 | 11 to 15 | > 15 | 0.34 to 0.66 | > 0.66
C[C@@H]1CN(Cc2cc3c(c(C4CC4)n2)CN(c2cccc(C4(Cc5nncn5C(F)F)COC4)c2)C3=O)CCC1(F)F [Compound 38, 4-cyclopropyl-6-{[(3R)-4,4-difluoro-3-methylpiperidin-1-yl]methyl}-2-[3-(3-{[4-(difluoromethyl)-1,2,4-triazol-3-yl]methyl}oxetan-3-yl)phenyl]-3H-pyrrolo[3,4-c]pyridin-1-one] | 8.30 to 9.00 |  | 8.30 to 9.00 | > 1.39 | > 1.39 | > 1.14 | > 1.14 | > 15 | > 15 | > 0.66 | > 0.66
C[C@@H]1CN([C@@H](C)c2cc3c(c(C4CC4)n2)CN(c2cccc(C4(Cc5nncn5C)COC4)c2)C3=O)CCC1(F)F [Compound 49, 4-cyclopropyl-6-((S)-1-((R)-4,4-difluoro-3-methylpiperidin-1-yl)ethyl)-2-(3-(3-((4-methyl-4H-1,2,4-triazol-3-yl)methyl)oxetan-3-yl)phenyl)-2,3-dihydro-1H-pyrrolo[3,4-c]pyridin-1-one] | > 9.00 |  |  | > 1.39 | > 1.39 | > 1.14 | > 1.14 | > 15 | > 15 | > 0.66 | > 0.66
C[C@H]1CCCN(Cc2cc3c(c(C4CC4)n2)CN(c2cccc(C4(Cc5nncn5C(F)F)COC4)c2)C3=O)C1 [Compound 37, 4-cyclopropyl-2-[3-(3-{[4-(difluoromethyl)-1,2,4-triazol-3-yl]methyl}oxetan-3-yl)phenyl]-6-{[(3S)-3-methylpiperidin-1-yl]methyl}-3H-pyrrolo[3,4-c]pyridin-1-one] | 8.30 to 9.00 |  | 8.30 to 9.00 | > 1.39 | > 1.39 | > 1.14 | > 1.14 | > 15 | > 15 | > 0.66 | > 0.66
C[C@@H]1CN(Cc2cc3c(c(C(F)(F)F)c2)CN(c2cc(C4(Cc5nncn5C)COC4)cc(C4CC4)n2)C3=O)CCC1(F)F [Compound 30, (R)-2-(6-cyclopropyl-4-(3-((4-methyl-4H-1,2,4-triazol-3-yl)methyl)oxetan-3-yl)pyridin-2-yl)-6-((4,4-difluoro-3-methylpiperidin-1-yl)methyl)-4-(trifluoromethyl)isoindolin-1-one] |  | 7.00 to 8.29 | 7.00 to 8.29 | < 1.24 | < 1.24 | < 1.04 | < 1.04 | > 15 | > 15 | 0.34 to 0.66 | 0.34 to 0.66

More lines, main results first:

pIC50 [3, 9] | pIC50 [3, 10] | pIC50 [3, 11] | SMILES | fold induction at 0.3 µM [1, 4] | fold induction at 1 µM [1, 5] | fold induction at 1 µM [1, 6] | fold induction at 3 µM ([1]; anti-CD3 alone) | fold induction at 0.3 µM [2, 4] | fold induction at 1 µM [2, 7] | fold induction at 1 µM [2, 8] | fold induction at 3 µM ([2]; anti-CD3 alone)
 | 7.00 to 8.29 |  | C[C@H]1CN(Cc2cc3c(c(C(F)(F)F)c2)CN(c2cccc(C4(Cc5nncn5C)COC4)c2)C3=O)CCC1(F)F [Compound 9, (S)-6-((4,4-difluoro-3-methylpiperidin-1-yl)methyl)-2-(3-(3-((4-methyl-4H-1,2,4-triazol-3-yl)methyl)oxetan-3-yl)phenyl)-4-(trifluoromethyl)isoindolin-1-one] | 1.25 to 1.39 | > 1.39 | > 1.14 | > 1.14 | 11 to 15 | > 15 | 0.34 to 0.66 | 0.34 to 0.66
 | 8.30 to 9.00 |  | Cn1cnnc1CC1(c2cccc(N3Cc4c(cc(CN5CCC(F)(F)[C@H](CO)C5)cc4C(F)(F)F)C3=O)c2)COC1 [Compound 15, (S)-6-((4,4-difluoro-3-(hydroxymethyl)piperidin-1-yl)methyl)-2-(3-(3-((4-methyl-4H-1,2,4-triazol-3-yl)methyl)oxetan-3-yl)phenyl)-4-(trifluoromethyl)isoindolin-1-one] | < 1.24 | < 1.24 | 1.05 to 1.14 | 1.05 to 1.14 | < 10 | 11 to 15 | < 0.33 | 0.34 to 0.66
7.00 to 8.29 |  | 7.00 to 8.29 | Cn1cnnc1CC1(c2cccc(N3Cc4c(cc(CN5CC(C(F)(F)F)C[C@H](C(F)(F)F)C5)cc4C(F)(F)F)C3=O)c2)COC1 (stereo partly drawn) [Compound 21, cis-6-{[3,5-bis(trifluoromethyl)piperidin-1-yl]methyl}-2-(3-{3-[(4-methyl-1,2,4-triazol-3-yl)methyl]oxetan-3-yl}phenyl)-4-(trifluoromethyl)-3H-isoindol-1-one] | 1.25 to 1.39 | 1.25 to 1.39 | < 1.04 | < 1.04 | < 10 | < 10 | < 0.33 | < 0.33
 | 8.30 to 9.00 | 8.30 to 9.00 | C[C@@H]1CCCN(Cc2cc3c(c(C(F)(F)F)c2)CN(c2cccc(C4(Cc5nncn5C)COC4)c2)C3=O)C1 [Compound 3, (R)-2-(3-(3-((4-methyl-4H-1,2,4-triazol-3-yl)methyl)oxetan-3-yl)phenyl)-6-((3-methylpiperidin-1-yl)methyl)-4-(trifluoromethyl)isoindolin-1-one] | 1.25 to 1.39 | 1.25 to 1.39 | 1.05 to 1.14 | 1.05 to 1.14 | 11 to 15 | > 15 | 0.34 to 0.66 | 0.34 to 0.66
 | 7.00 to 8.29 | 7.00 to 8.29 | Cn1cnnc1CC1(c2cccc(N3Cc4c(cc(CN5CCCC6(COC6)C5)cc4C(F)(F)F)C3=O)c2)COC1 [Compound 12, 6-((2-oxa-6-azaspiro[3.5]nonan-6-yl)methyl)-2-(3-(3-((4-methyl-4H-1,2,4-triazol-3-yl)methyl)oxetan-3-yl)phenyl)-4-(trifluoromethyl)isoindolin-1-one] | 1.25 to 1.39 | 1.25 to 1.39 | < 1.04 | 1.05 to 1.14 | < 10 | 11 to 15 | < 0.33 | < 0.33
8.30 to 9.00 |  |  | C[C@H]1CCCN(Cc2cc3c(c(C(F)(F)F)c2)CN(c2cccc(C4(Cc5nncn5C)COC4)c2)C3=O)[C@H]1C (relative stereo) [Compound 19, 6-((cis-2,3-dimethylpiperidin-1-yl)methyl)-2-(3-(3-((4-methyl-4H-1,2,4-triazol-3-yl)methyl)oxetan-3-yl)phenyl)-4-(trifluoromethyl)isoindolin-1-one] | 1.25 to 1.39 | 1.25 to 1.39 | 1.05 to 1.14 | 1.05 to 1.14 | < 10 | 11 to 15 | < 0.33 | 0.34 to 0.66
